Results from US20110281744A1, “METHOD OF IDENTIFYING COMPOUNDS THAT MODULATE REGULATION OF IRON RESPONSE ELEMENTS” (priority 2007, published 2011).
Read-outs that look alike come from different tables or passages of the source. Ends that are not written are not given here.

Columns and labels:
[1] = tested on: IRP; settings: curcumin treatment; cited from earlier work
[2] = tested on: TfR; settings: curcumin treatment; cited from earlier work
[3] = tested on: ferritin; settings: curcumin treatment; cited from earlier work
[4] = tested on: ferritin mRNA; test: Polysome analysis with northern blot: ferritin mRNA translation in treated cultured cells; format: cell-based; settings: cells treated overnight with iron or iron plus desferal; FIG. 1B right panel
Experimental: (§1) FIG. 1A top panel is a graph showing polysome analysis with optical density as a function of percent sucrose. Total RNA is isolated from cultured cells by lysing the cells in polysome extraction buffer (15 mM Tris, pH 7.6, 0.3 M NaCl, 15 mM MgCl2 and 1% Triton X-100) containing 100 ng/ml cyclohexamide and 1 mg/ml heparin. The lysates are then layered onto a 10-50% sucrose gradient and centrifuged at 38,000 rpm for 2 hrs. The gradients are fractionated by monitoring UV absorbance at 254 nm.
(§2) FIG. 1A bottom panel is a northern blot showing Actin and Ferratin RNA. RNA was isolated from each fraction using RNeasy 96 Universal Tissue Kit (Qiagen) then loaded on a agarose gel and subjected to northern analysis with the appropriate probe. The high molecular weight fractions (6-12) represent those for which protein synthesis is occurring.
(§3) FIG. 1B are northern blots showing the indicated RNA. Cells were treated overnight with either iron oriron plus desferal to chelate iron and RNA was isolated and analyzed as described above.

[5] = tested on: actin mRNA; test: Polysome analysis with northern blot: actin mRNA translation in treated cultured cells (control); format: cell-based; settings: cells treated overnight with iron or iron plus desferal; FIG. 1B left panel
Experimental: as §1, §2, §3

[6] = tested on: TfR; settings: melanoma cells; cited from earlier work
[7] = tested on: melanoma cells; settings: cited from earlier work
[8] = tested on: DMT1; settings: cited from earlier work
[9] = tested on: iron uptake; settings: through reduction in IRE(+) DMT1 mRNA; cited from earlier work

## COc1cc(/C=C/C(=O)CC(=O)/C=C/c2ccc(O)c(OC)c2)ccc1O [curcumin, Curcumin]
[1]
  IRP activation: increased IRP activation
[2]
  TfR level: increase in TfR
[3]
  ferritin level: decrease in ferritin

## CC(=O)N(O)CCCCCNC(=O)CCC(=O)N(O)CCCCCNC(=O)CCC(=O)N(O)CCCCCN [desferal]
[4]
  effect on ferritin translation (polysome distribution of ferritin mRNA): inhibits translation
[5]
  effect on translation of actin mRNA: neither iron nor deseferal treatment had an effect

## [Fe] [iron]
[4]
  effect on ferritin translation (polysome distribution of ferritin mRNA): ferritin translation increases
[5]
  effect on translation of actin mRNA: neither iron nor deseferal treatment had an effect

## O=C1O[C@H]([C@@H](O)CO)C([O-])=C1O.[Na+] [sodium ascorbate, Sodium ascorbate]
[6]
  TfR level: reduction in TfR
[7]
  cell death (apoptosis): apoptosis
  intracellular iron: reduced intracellular iron

## hepcidin (DTHFPICIFCCGCCHRSKCGMCCKT; ends and bridges not checked; cysteine pairing not given here; UniProt P81172 60-84, looked up) [a naturally occurring peptide]
[8]
  DMT1 protein isoforms with or without IRE: reduces DMT1 protein isoforms containing the IRE, but not those lacking the IRE
[9]
  iron uptake: significantly reduce iron uptake
